Data: patent publication US8129355B2, “Ketone ligands for modulating the expression of exogenous genes via an ecdysone receptor complex” (priority 2002, dated 2012)

Experiments:
[1] = target: T1, Gal4 DBD/AaEcR (DEF) with VP16-βRXR-E (Aedes aegypti, UniProt P49880); assay: cell-based; type: cell-based; settings: for LC50 (half-maximal ligand concentration for reporter induction): average, dose response 33 μM to 0.01 μM, three-parameter logistic model, read-out: AA_3T3 LC50; for AA_3T3 Rel Max FI: maximum fold induction at any concentration relative to that of GS-E ligand; for Fold Induction Average, AA_3T3 Assay (33 μM): single dose 33 μM, RLU ligand treated / RLU DMSO treated cells
T1 construct: The wildtype D, E, and F domains from mosquito Aedes aegypti EcR (“AaEcR-DEF”); expressed in transfected cells; host or cells: 3T3 cells, transient transfection (Superfect)

[2] = target: T2, GAL4 DBD (1-147)-CfEcR(DEF)/VP16AD-βRXREF-LmUSPEF (Choristoneura fumiferana, UniProt O77240); assay: 27-63 assay: luciferase reporter gene expression in stable CHO cell clone 27-63; settings: for 27-63 Rel Max FI: maximum fold induction at any concentration relative to that of GS-E ligand; for CC50: read-out: 27-63 LC50, average, dose response, three-parameter logistic model; for Fold Induction Average, 27-63 Assay (33 μM): single dose 33 μM, RLU ligand treated / RLU DMSO treated cells
T2 sequence (O77240 191-513): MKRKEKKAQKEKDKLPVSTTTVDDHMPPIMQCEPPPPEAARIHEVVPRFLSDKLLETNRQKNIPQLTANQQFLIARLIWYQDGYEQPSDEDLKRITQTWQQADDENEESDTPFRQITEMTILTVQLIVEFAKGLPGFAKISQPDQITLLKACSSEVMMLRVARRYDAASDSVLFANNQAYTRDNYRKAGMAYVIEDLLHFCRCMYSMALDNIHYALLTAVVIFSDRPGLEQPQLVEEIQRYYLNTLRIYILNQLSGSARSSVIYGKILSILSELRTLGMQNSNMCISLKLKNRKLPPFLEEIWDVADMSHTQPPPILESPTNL
T2 sequence (P28702 296-455 partner limits assumed): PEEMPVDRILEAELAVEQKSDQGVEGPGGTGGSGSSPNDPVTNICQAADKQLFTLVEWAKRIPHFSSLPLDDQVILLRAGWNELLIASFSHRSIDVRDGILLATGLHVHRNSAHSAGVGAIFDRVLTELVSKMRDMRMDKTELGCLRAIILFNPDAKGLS
How it was run: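 CHO clone stably expressing GAL4 DBD-CfEcR(DEF) and VP16AD-HsRXRβ/LmUSP EF chimera plus a 5XGAL4RE-luciferase reporter; ligands given at 8 concentrations (33 μM to 0.01 μM), luminescence read 48 h after treatment. Fold induction versus DMSO cells; BC50 from three-parameter logistic fit.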

T1 sequence (P28704 286-520 A311G/G315S/G445S/I449V): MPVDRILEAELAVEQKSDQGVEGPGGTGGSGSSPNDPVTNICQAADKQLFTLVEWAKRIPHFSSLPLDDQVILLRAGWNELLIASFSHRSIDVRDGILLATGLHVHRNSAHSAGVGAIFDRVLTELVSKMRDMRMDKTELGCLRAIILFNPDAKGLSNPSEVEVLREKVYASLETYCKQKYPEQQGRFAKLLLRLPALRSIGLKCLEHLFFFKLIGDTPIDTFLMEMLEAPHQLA
T1 sequence (P49880 405-776): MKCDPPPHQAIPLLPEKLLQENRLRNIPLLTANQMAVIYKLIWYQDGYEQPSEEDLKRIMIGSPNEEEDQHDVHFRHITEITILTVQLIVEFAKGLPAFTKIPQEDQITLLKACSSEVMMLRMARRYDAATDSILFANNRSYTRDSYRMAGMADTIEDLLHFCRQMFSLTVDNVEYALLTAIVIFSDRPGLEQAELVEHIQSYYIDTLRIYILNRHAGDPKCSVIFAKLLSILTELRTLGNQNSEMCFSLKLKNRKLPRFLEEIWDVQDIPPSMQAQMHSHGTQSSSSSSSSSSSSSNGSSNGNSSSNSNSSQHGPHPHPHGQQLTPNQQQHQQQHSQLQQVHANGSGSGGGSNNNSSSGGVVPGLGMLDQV

Row | SMILES | LC50 (half-maximal ligand concentration for reporter induction) [1] | AA_3T3 Rel Max FI [1] | Fold Induction Average, AA_3T3 Assay (33 μM) [1] | 27-63 Rel Max FI [2] | CC50 [2] | Fold Induction Average, 27-63 Assay (33 μM) [2] | fold induction at 33 µM ([1]; NIH3T3, read-out: Fold Induction Average, AA_3T3 Assay (33 μM)) | fold induction at 33 µM ([2]; CHO, read-out: Fold Induction Average, 27-63 Assay (33 μM))
1 | CCC(CC)(NC(=O)c1cccc(OC)c1C)C(=O)c1ccccc1 [Example 78] | > 33 µM | 0.00 | 14 | 0.41 | 6.54 µM | – | – | –
2 | CCOC(=O)C(=O)N1CCCC(NC(=O)c2cccc(OC)c2C)(C(=O)c2cc(C)cc(C)c2)C1 (racemic) [Example 154] | – | – | 2 | – | – | 2 | – | –
3 | COc1cccc(C(=O)NC2(C(=O)c3cc(C)cc(C)c3)CCN(C(C)=O)CC2)c1C [Example 149] | – | – | – | – | – | – | 2 | 1
4 | CCc1c(OC)cccc1C(=O)NC1(C(=O)c2cc(C)cc(C)c2)CCCC1 [Example 144] | 2.67 µM | 0.70 | 2339 | 0.93 | 1.52 µM | – | – | –
5 | COc1ccccc1C(=O)C(C)(C)NC(=O)c1cccc(OC)c1C [Example 74] | – | – | 4 | – | – | 9 | – | –
6 | CCC(CC)(NC(=O)c1cccc(OC)c1C)C(=O)c1ccc(C)cc1 [Example 77] | – | – | 1 | 0.00 | > 33 µM | – | – | –
7 | CCNC(=O)N1CCC(NC(=O)c2cccc(OC)c2C)(C(=O)c2cc(C)cc(C)c2)CC1 [Example 157] | – | – | 1 | – | – | 1 | – | –
8 | COc1cccc(C(=O)NC2(C(=O)c3ccc(C)cc3)CCCC2)c1C [Example 79] | > 33 µM | 0.00 | 12 | 0.32 | 4.38 µM | – | – | –
9 | COc1ccccc1C(=O)C(C)(NC(=O)c1cccc(OC)c1C)c1ccc(F)cc1 (centres unmarked) [Example 72] | – | – | 3 | – | – | 1 | – | –
10 | COc1cccc(C(=O)NC(C)(C)C(=O)c2cc(C)cc(C)c2)c1C [Example 75] | > 33 µM | 0.02 | 161 | 0.29 | 42 µM | – | – | –
11 | COc1cccc(C(=O)NC2(C(=O)c3cc(C)cc(C)c3)CCCCCC2)c1C [Example 71] | 8.18 µM | 0.42 | 1277 | 0.88 | 2.97 µM | – | – | –
12 | O=C(NC1(C(=O)c2ccccc2)CCCC1)c1ccccc1 [Example 139] | – | – | 2 | 0.00 | > 33 µM | – | – | –
